{
  "source": "patent US8741853B2",
  "about": "“Mitochondria-targeting antioxidant therapeutics” (priority 2007, dated 2014)",
  "key": {"[1]": {"tested_on": "mitochondrial membrane potential (ΔΨm) in SHSY-5Y neuroblastoma cells", "conditions": "FRET-based ΔΨm assay, reference agent, cited from earlier work"}, "[2]": {"tested_on": "mitochondrial membrane potential (ΔΨm) in SHSY-5Y neuroblastoma cells", "assay": "FRET-based ΔΨm assay (NAO/TMRE), compound alone and Ca2+-induced ΔΨm collapse", "type": "cell-based", "conditions": "concentration not given; for B-C response, typical values: reference agents alone; for % Ca^2+ response score (comparison agents): reference agents"}, "[3]": {"tested_on": "human tumor cell lines FaDu and Jurkat, Ki-v-Ras-transformed Balb/c-3T3 murine mesenchymal cell line", "conditions": "cited from earlier work"}, "[4]": {"conditions": "humans; cited from earlier work"}, "[5]": {"tested_on": "caspase-3 activation in SHSY-5Y cells", "assay": "Caspase-3 activation induced by ethacrynic acid plus thapsigargin", "type": "cell-based", "conditions": "positive control, 24 hr ethacrynic acid/thapsigargin stress", "method": "The potential ability of test compound Nos. 1-10 individually to moderate caspase activation was therefore examined using SHSY-5Y cells, in accordance with the Dykens assay.\nIn the Dykens assay method, caspase activation is induced by 24 hr exposure to a combined stress of ethacrynic acid (25 to derivatize glutathione and induce oxidative stress, and thapsigargin (1 μM), to induce a chronic increase in cytosolic Ca^2+. Caspase activity is determined using a fluorogenic substrate, with rates normalized to cell number; and is expressed as % response of controls on every plate exposed to ethacrynate and thapsigargen in the absence of compound. Compound Nos. 1-10 at 10 μM were separately introduced for reaction at the same time as the ethycrynic acid/thapsigargin addition, and were present throughout the 24 hr incubation period."}, "[6]": {"conditions": "read-out: EC50, prevent Ca^2+ uptake via uniporter inhibition"}},
  "note": "pEC50: −log10 of the molar value. Like-named read-outs stand apart in the source and are kept apart here.",
  "data": [
    {"molecule": "Nc1ncnc2c1ncn2[C@@H]1O[C@H](COP(=O)(O)OP(=O)(O)O)[C@@H](O)[C@H]1O", "note": "[ADP]", "values": [
      {"measurement": "pEC50", "setting": "[1]; read-out: EC50, dissipate ΔΨm under physiological circumstances", "value": 3.91}
    ]},
    {"molecule": "N#CC(C#N)=NNc1cccc(Cl)c1", "note": "[CCCP]", "values": [
      {"measurement": "B-C response, typical values", "setting": "[2]", "value": "~−1800", "unit": "RFU"},
      {"measurement": "pEC50", "setting": "[1]; read-out: EC50, collapse ΔΨm", "value": 5.70}
    ]},
    {"molecule": "O=C(O)CCCCC1CCSS1", "note": "(stereo not drawn) [alpha-lipoic acid, 1,2-dithiolane-3-pentanoic acid]", "values": [
      {"measurement": "Apoptosis in tumor cell lines", "setting": "[3]", "value": "induces apoptosis"},
      {"measurement": "plasma half-life", "setting": "[4]", "value": "less than 1 hour"},
      {"measurement": "time to excretion, mainly in the urine", "setting": "[4]", "value": "≤ 24", "unit": "h"}
    ]},
    {"molecule": "CO[C@H](C/C=C\\C=C\\CC/C=C/C[C@H](C)/C=C/C(=C\\C(=O)O)CC(=O)O)/C(C)=C\\C=C(/C)C(=O)O", "note": "[bongkrekate]", "values": [
      {"measurement": "B-C response, typical values", "setting": "[2]", "value": "~600", "unit": "RFU"},
      {"measurement": "% Ca^2+ response score (comparison agents)", "setting": "[2]", "value": 44, "unit": "%"},
      {"measurement": "pEC50", "setting": "[1]; read-out: EC50, inhibit Ca^2+-mediated ΔΨm loss", "value": 7.11}
    ]},
    {"molecule": "CC[C@H]1/C=C/C=C/C[C@@H](C)[C@H](O)[C@@](C)(O)C(=O)[C@@H](C)[C@H](O)[C@@H](C)C(=O)[C@@H](C)[C@H](O)[C@@H](C)/C=C/C(=O)O[C@@H]2[C@H](C)[C@H](CC1)O[C@]1(CC[C@H](C)[C@H](C[C@@H](C)O)O1)[C@H]2C", "note": "[oligomycin]", "values": [
      {"measurement": "pEC50", "setting": "[1]; read-out: EC50, hyperpolarize ΔΨm", "value": 7.59}
    ]},
    {"molecule": "N.N.N.N.N.N.N.N.N.N.N.N.N.N.[Cl-].[Cl-].[Cl-].[Cl-].[Cl-].[Cl-].[O-2].[O-2].[Ru+3].[Ru+3].[Ru+4]", "note": "[ruthenium red]", "values": [
      {"measurement": "% Ca^2+ response score (comparison agents)", "setting": "[2]", "value": 9, "unit": "%"},
      {"measurement": "pEC50", "setting": "[1]; [6]", "value": 6.57}
    ]},
    {"molecule": "IGF-1: positive control in caspase-3 activation assay", "values": [
      {"measurement": "Reduction of caspase activity", "setting": "[5]", "value": 64, "unit": "%"}
    ]},
    {"molecule": "RU-360", "values": [
      {"measurement": "pEC50", "setting": "[1]; [6]", "value": 7.92}
    ]}
  ]
}
